Marks after values point to notes of the source that are not given here.
Assays:
[1] = tested on: human bile duct cancer HuCCT1 cell; experiment: Cytotoxic action on HuCCT1 cells (WST-8, 96 hr); format: cell-based; settings: HuCCT-1, HuCCT1, 96 hr
Method: (§1) The cytotoxic action of the compound of the present invention against human cancer cells was evaluated in vitro. In this experiment, (+)-JQ1 (Nature volume 468, pages 1067-1073 (23 Dec. 2010)) known to have an inhibitory activity on the binding of BRD4 protein and a ligand therefor was used as a positive control drug. Respective cells were suspended in 10% FBS/RPMI1640, seeded in a 96 well plate and cultured at 5% CO2, 37° C. overnight. A test compound dissolved in DMSO was diluted with 10% FBS/RPMI1640 and added and the cells were further cultured for 96 hr. After culturing, the viable cell number was measured using a cell number measurement WST-8 kit (Kishida Chemical Co., Ltd.). As a control, the measurement was performed under conditions free of the test compound. The cytotoxic activity of the compound of the present invention against human prostate cancer LNCaP cells is shown in IC50 value in Table 1. The IC50 value is a concentration of the compound showing 50% cell survival rate when the cell survival rate thereof under compound untreated condition is 100%. It was calculated from the straight line connecting the cell survival rate at two points enclosing the 50% cell survival rate and the compound concentration. […]

[2] = tested on: human colon cancer HCT116 cell; experiment: Cytotoxic action on HCT116 cells (WST-8, 96 hr); format: cell-based; settings: HCT-116, HCT116, 96 hr
Method: as §1

[3] = tested on: human renal cell cancer 786-O cell; experiment: Cytotoxic action on 786-O cells (WST-8, 96 hr); format: cell-based; settings: 786-O (printed 786-0)
Method: as §1

[4] = tested on: human fibrosarcoma HT1080 cell; experiment: Cytotoxic action on HT1080 cells (WST-8, 96 hr); format: cell-based; settings: HT-1080, HT1080, 96 hr
Method: as §1

[5] = tested on: human uterus cervix cancer HeLa cell; experiment: Cytotoxic action on HeLa cells (WST-8, 96 hr); format: cell-based
Method: as §1

[6] = Maximum tolerated dose in rats (single tail vein administration); settings: rat, in vivo, intravenous, male CD (SD) rats
Method: The maximum tolerated dose (MTD) in rats was determined for the compound of the present invention.

[7] = tested on: human diffuse large B-cell lymphoma SU-DHL-6 cell; experiment: Cytotoxic action on SU-DHL-6 cells (WST-8, 96 hr); format: cell-based; settings: SU-DHL-6, 96 hr
Method: as §1

BRD4 protein = BRD4 protein (Homo sapiens (Human), UniProt O60885); experiment: Inhibitory action on binding of BRD4 protein and acetylated histone H4 (TR-FRET); settings: BRD4-1 (GST) and acetylated histone H4 peptide, 3 hr
Method: The inhibitory action of the compound of the present invention on the binding of BRD4 protein and a ligand thereof (acetylated histone H4) was evaluated by the time-resolved fluorescence resonance energy transfer (TR-FRET) method using EPIgeneous™ Binding Domain Kit A (Cisbio), BRD4-1 (GST) (Reaction Biology Corp) and [Lys(Ac)5/8/12/16]-Histone H4(1-21)-GGK (Biotin) (Eurogentec). In this experiment, (+)-JQ1 (Nature volume 468, pages 1067-1073 (23 Dec. 2010)) known to have an inhibitory activity on the binding of BRD4 protein and acetylated histone H4 therefor was used as a positive control drug. A test compound dissolved in DMSO was diluted with attached Diluent Buffer, added to a 384 well white plate, and BRD4-1 (GST) and [Lys(Ac)5/8/12/16]-Histone H4(1-21)-GGK (Biotin) were further added. Thereafter, Streptavidin-d2 conjugate and Anti-GST-Eu^3+ Cryptate Conjugate were added and the cells were incubated at room temperature for 3 hr. The binding amount of the BRD4 protein and acetylated histone H4 was measured as the fluorescence intensity (excitation: 314 nm/emission: 620 nm and excitation: 314 nm/emission: 665 nm). […] It was calculated from the straight line connecting the degradation rate at two points enclosing the 50% fluorescence intensity and the compound concentration.

[8] = tested on: human T-cell leukemia Jurkat cells; experiment: Cytotoxic action on Jurkat cells (WST-8, 96 hr); format: cell-based
Method: as §1

[9] = tested on: human acute myeloid leukemia MV-4-11 cell transplanted mouse; experiment: Antitumor effect of 1 week intermittent administration to MV-4-11 cell transplanted mouse (tail vein, days 1 and 8); format: in vivo; settings: tumor weight on day 15
Method: The in vivo antitumor effect of the compound of the present invention was studied using human acute myeloid leukemia MV-4-11 cell transplanted mouse. MV-4-11 cells were subcutaneously transplanted into the inguinal region of male, 6-week-old BALB/c nude mouse (5×10^6 cells/mouse). The compound of the present invention was administered into the tail vein on days 1 and 8 from the time point when the assumed tumor volume determined from ½ab^2 (a is major axis and b is minor axis of tumor) reached about 200 mm^3 (day 1). The control group was administered with a solvent, 10% Kolliphor ELP/5% ethanol/85% saline solution. On day 15, the tumor was isolated, the weight was measured, and the tumor growth inhibitory rate IR (%) was calculated by the following formula. tumor growth inhibitory rate IR (%)={1−(average tumor weight of administration group/average tumor weight of nonadministration control group)}×100(%)

Which IC50 [1] does the source give for `COC(=O)C[C@@H]1N=C(c2ccc(-c3ccc(C(=O)NCc4ccc(S(=O)(=O)Nc5ccc(C)c6c(C#N)c[nH]c56)cc4)cc3)cc2)c2c(sc(C)c2C)-n2c(C)nnc21` [Example 1, methyl [(6S)-4-{4′-[({4-[(3-cyano-4-methyl-1H-indol-7-yl)sulfamoyl]phenyl}methyl)carbamoyl][1,1′-biphenyl]-4-yl}-2,3,9-trimethyl-6H-thieno[3,2-f][1,2,4]triazolo[4,3-a][1,4]diazepin-6-yl]acetate] here?
Its IC50 is 26 nM.

And the IC50 [2]?
Its IC50 is 8.8 nM.

And the IC50 [3]?
Its IC50 is 660 nM.

What about the IC50 [4] of the same molecule?
The IC50 was 13 nM.

And the IC50 [5]?
The IC50 was 27 nM.

What about the MTD [6] of the same molecule?
The MTD was over 10 mg/kg.

What about the IC50 [7] of the same molecule?
The IC50 was 0.44 nM.

And the IC50 (BRD4 protein)?
Its IC50 is 29 nM.

And the IC50 [8]?
The IC50 was 1.3 nM.

And the “tumor growth inhibitory rate” value ([9]; 4 mg/kg/day)?
Its value is 56** %.

And the “tumor growth inhibitory rate” value ([9]; 12.5 mg/kg/day)?
The value was 92** %.

From US11890288B2, “Sulfonamide or sulfinamide compound having effect of inducing BRD4 protein degradation and pharmaceutical use thereof” (MITSUBISHI TANABE PHARMA CORPORATION, priority 2020, dated 2024)
